Measurements: US12174190B2, “Combined markers for metastatic cancer and uses thereof” (Albert Einstein College of Medicine, priority 2017, dated 2024)

Columns and labels:
Format in all cases: in vivo, human
[1] = system: TMEM (Tumor Microenvironment of Metastasis); test: TMEM score in breast cancers before and after neoadjuvant chemotherapy (NAC); details: 20 breast cancer patients, before vs after NAC (weekly paclitaxel 80 mg/m^2 x 12 weeks followed by dose-dense AC); FIG. 5B-C
Method: (§1) FIG. 5A-5D. Neoadjuvant chemotherapy increases TMEM, MenaCalc and MenaINV scores in some breast cancer patients. Paclitaxel (and other cytotoxic chemotherapy) increases TMEM Score, MenaCalc and MenaINV expression in breast cancer patients treated with neoadjuvant chemotherapy (NAC). (A) Study design. (B) Individual TMEM scores of 20 patients before and after receiving NAC, which included weekly paclitaxel (80 mg/m^2×12 consecutive weeks) followed sequentially by dose-dense AC chemotherapy (doxorubicin 60 mg/m^2 and cyclophosphamide 600 mg/m^2 every 2 weeks×4 cycles, plus pegrastim 6 mg SC on day 2 of each cycle). Horizontal line; TMEM high-risk cutoff point. […] (D) MenaCalc expression in fine needle aspiration (FNA) biopsies, as assessed by real-time RT-PCR from 4 patients before and after 2 doses of neo-adjuvant chemotherapy with paclitaxel. (E) MenaINV gene expression in FNA biopsy samples, as assessed by real-time RT-PCR, taken from 5 breast cancer patients before and after 2-weeks of receiving NAC with paclitaxel. […]
Individual TMEM scores of 20 patients were determined before and after receiving NAC, which included weekly paclitaxel (80 mg/m^2×12 consecutive weeks) followed sequentially by dose-dense AC chemotherapy (doxorubicin 60 mg/m^2 and cyclophosphamide 600 mg/m^2 every 2 weeks×4 cycles, plus pegrastim 6 mg SC on day 2 of each cycle) (see FIG. 5B). […]

MenaCalc = MenaCalc expression in FNA biopsies by real-time RT-PCR before and after NAC with paclitaxel; details: FNA biopsies from 4 patients, before vs after 2 doses of neo-adjuvant paclitaxel; FIG. 5D
Method: as §1, with “point. For each pair of bars, Pre-NAC scores are shown in the first bar in the pair and Post-NAC scores are shown in the second bar.” for “point.”
(§2) MenaCalc expression was determined in fine needle aspiration (FNA) biopsies, as assessed by real-time RT-PCR from 4 patients before and after 2 doses of neo-adjuvant chemotherapy with paclitaxel (see FIG. 5D). […]

MenaINV = MenaINV gene expression in FNA biopsy samples by real-time RT-PCR before and after NAC with paclitaxel; details: FNA biopsies from 5 breast cancer patients, before vs after 2 weeks of NAC with paclitaxel; FIG. 5E
Method: as §1, with “point. For each pair of bars, Pre-NAC scores are shown in the first bar in the pair and Post-NAC scores are shown in the second bar.” for “point.”
as §2

CC(=O)O[C@H]1C(=O)[C@@]2(C)[C@H]([C@H](OC(=O)c3ccccc3)[C@]3(O)C[C@H](OC(=O)[C@H](O)[C@@H](NC(=O)c4ccccc4)c4ccccc4)C(C)=C1C3(C)C)[C@]1(OC(C)=O)CO[C@@H]1C[C@@H]2O [paclitaxel]
increases: TMEM Score [1] | MenaCalc expression (MenaCalc) | MenaINV expression (MenaINV)
